Experimental data published in PubChem BioAssay AID2060619 (Molecular Pharmacology Branch, DTP, NCI, 2025).

Tested on: 323965-272-R-J2-PDC complex spheroid viability
Experiment: Anticancer human tumor 323965-272-R-J2-PDC patient-derived pancreatic carcinoma cell line growth inhibition [CLK]
Conditions: for IC50: curve of first compound; for viability, T/C: stronger effect = lower value
Summary of the method: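 Multi-cell-type spheroids combined patient-derived tumor cells with HUVEC endothelial cells and human mesenchymal stem cells. Paired agents were dosed in half-log steps down from about clinical Cmax, or from 10 microM where Cmax was unknown.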

[1] = second compound 0.0316 µM, first compound 0.0316 µM
[2] = second compound 0.0316 µM, first compound 0.1 µM
[3] = second compound 0.0316 µM, first compound 0.316 µM
[4] = second compound 0.0316 µM, first compound 1 µM
[5] = second compound 0.0316 µM, first compound 3.16 µM
[6] = second compound 0.0316 µM, first compound 10 µM
[7] = second compound 0.1 µM, first compound 0.0316 µM
[8] = second compound 0.1 µM, first compound 0.1 µM
[9] = second compound 0.1 µM, first compound 0.316 µM
[10] = second compound 0.1 µM, first compound 1 µM
[11] = second compound 0.1 µM, first compound 3.16 µM
[12] = second compound 0.1 µM, first compound 10 µM
[13] = second compound 0.316 µM, first compound 0.0316 µM
[14] = second compound 0.316 µM, first compound 0.1 µM
[15] = second compound 0.316 µM, first compound 0.316 µM
[16] = second compound 0.316 µM, first compound 1 µM
[17] = second compound 0.316 µM, first compound 3.16 µM
[18] = second compound 0.316 µM, first compound 10 µM
[19] = second compound 1 µM, first compound 0.0316 µM
[20] = second compound 1 µM, first compound 0.1 µM
[21] = second compound 1 µM, first compound 0.316 µM
[22] = second compound 1 µM, first compound 1 µM
[23] = second compound 1 µM, first compound 3.16 µM
[24] = second compound 1 µM, first compound 10 µM
[25] = second compound 3.16 µM, first compound 0.0316 µM
[26] = second compound 3.16 µM, first compound 0.1 µM
[27] = second compound 3.16 µM, first compound 0.316 µM
[28] = second compound 3.16 µM, first compound 1 µM
[29] = second compound 3.16 µM, first compound 3.16 µM
[30] = second compound 3.16 µM, first compound 10 µM
[31] = second compound 10 µM, first compound 0.0316 µM
[32] = second compound 10 µM, first compound 0.1 µM
[33] = second compound 10 µM, first compound 0.316 µM
[34] = second compound 10 µM, first compound 1 µM
[35] = second compound 10 µM, first compound 3.16 µM
[36] = second compound 10 µM, first compound 10 µM
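Also: spheroids exposed to agents for seven days before readout.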
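For viability, T/C in this document: percent of DMSO vehicle control wells so 100% = untreated growth.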

What does the source list for `C#Cc1c(F)ccc2cc(O)cc(-c3ncc4c(N5CC6CCC(C5)N6)nc(OCC56CCCN5CC(F)C6)nc4c3F)c12` (centres undefined) + CNC(=O)c1ccc(Nc2nc(OC3CCCC3)c3c(-c4ccc5nc(C)oc5c4)c[nH]c3n2)c(OC)c1?
IC50 (second compound 0.0316 µM): > 10000 nM; IC50 (second compound 0.1 µM): 2630 nM; IC50 (second compound 0.316 µM): 633 nM; IC50 (second compound 1 µM): < 31.6 nM; IC50 (second compound 3.16 µM): < 31.6 nM; IC50 (second compound 10 µM): < 31.6 nM; viability, T/C [1]: 92.6%; viability, T/C [2]: 88.8%; viability, T/C [3]: 98.8%; viability, T/C [4]: 74.3%; viability, T/C [5]: 62.6%; viability, T/C [6]: 51.4%; viability, T/C [7]: 75%; viability, T/C [8]: 77.9%; viability, T/C [9]: 62.5%; viability, T/C [10]: 58.7%; viability, T/C [11]: 47.8%; viability, T/C [12]: 38.6%; viability, T/C [13]: 58.9%; viability, T/C [14]: 59.8%; viability, T/C [15]: 51.9%; viability, T/C [16]: 49.3%; viability, T/C [17]: 35.8%; viability, T/C [18]: 32.3%; viability, T/C [19]: 43.2%; viability, T/C [20]: 37.7%; viability, T/C [21]: 42.4%; viability, T/C [22]: 39.3%; viability, T/C [23]: 30.8%; viability, T/C [24]: 23.2%; viability, T/C [25]: 36.5%; viability, T/C [26]: 43.9%; viability, T/C [27]: 36.8%; viability, T/C [28]: 33.5%; viability, T/C [29]: 26%; viability, T/C [30]: 20.2%; viability, T/C [31]: 39.6%; viability, T/C [32]: 38.2%; viability, T/C [33]: 38.1%; viability, T/C [34]: 29.8%; viability, T/C [35]: 25.7%; viability, T/C [36]: 19.6%

`C=C(F)C(=O)N1CCN(c2nc(OCC3CCCN3C)nc3c2CCN(c2cccc4cccc(Cl)c24)C3)CC1CC#N` (centres undefined) + CNC(=O)c1ccc(Nc2nc(OC3CCCC3)c3c(-c4ccc5nc(C)oc5c4)c[nH]c3n2)c(OC)c1 was tested. Which IC50 (second compound 0.0316 µM) did it give?
Its IC50 is 7910 nM.

What about the IC50 (second compound 0.1 µM) of the same molecule?
Its IC50 is 31.6 nM.

What about the IC50 (second compound 0.316 µM) of the same molecule?
The IC50 was less than 31.6 nM.

What about the IC50 (second compound 1 µM) of the same molecule?
Its IC50 is less than 31.6 nM.

And the IC50 (second compound 3.16 µM)?
The IC50 was less than 31.6 nM.

What about the IC50 (second compound 10 µM) of the same molecule?
The IC50 was less than 31.6 nM.

And the viability, T/C [1]?
Its viability, T/C is 69.7%.

What about the viability, T/C [2] of the same molecule?
Its viability, T/C is 49.6%.

And the viability, T/C [3]?
The viability, T/C was 52.8%.

And the viability, T/C [4]?
The viability, T/C was 78%.

What about the viability, T/C [5] of the same molecule?
Its viability, T/C is 85.2%.

And the viability, T/C [6]?
Its viability, T/C is 17.7%.

What about the viability, T/C [7] of the same molecule?
The viability, T/C was 47.7%.

And the viability, T/C [8]?
The viability, T/C was 40.4%.

What about the viability, T/C [9] of the same molecule?
Its viability, T/C is 39.6%.

What about the viability, T/C [10] of the same molecule?
Its viability, T/C is 48.5%.

What about the viability, T/C [11] of the same molecule?
The viability, T/C was 64%.

And the viability, T/C [12]?
Its viability, T/C is 9.35%.

What about the viability, T/C [13] of the same molecule?
The viability, T/C was 36.1%.

What about the viability, T/C [14] of the same molecule?
Its viability, T/C is 28.4%.

What about the viability, T/C [15] of the same molecule?
The viability, T/C was 32.9%.

What about the viability, T/C [16] of the same molecule?
The viability, T/C was 33.4%.

What about the viability, T/C [17] of the same molecule?
Its viability, T/C is 45.2%.

What about the viability, T/C [18] of the same molecule?
The viability, T/C was 1.42%.

And the viability, T/C [19]?
The viability, T/C was 25.8%.

And the viability, T/C [20]?
Its viability, T/C is 22%.

What about the viability, T/C [21] of the same molecule?
Its viability, T/C is 25.6%.

What about the viability, T/C [22] of the same molecule?
Its viability, T/C is 27.8%.

What about the viability, T/C [23] of the same molecule?
The viability, T/C was 31%.

What about the viability, T/C [24] of the same molecule?
Its viability, T/C is 0.63%.

What about the viability, T/C [25] of the same molecule?
Its viability, T/C is 26.2%.

And the viability, T/C [26]?
The viability, T/C was 20.6%.

What about the viability, T/C [27] of the same molecule?
The viability, T/C was 22.1%.

And the viability, T/C [28]?
Its viability, T/C is 23.6%.

What about the viability, T/C [29] of the same molecule?
Its viability, T/C is 28.9%.

What about the viability, T/C [30] of the same molecule?
Its viability, T/C is 0.56%.

And the viability, T/C [31]?
The viability, T/C was 23.2%.

What about the viability, T/C [32] of the same molecule?
Its viability, T/C is 20.8%.

What about the viability, T/C [33] of the same molecule?
The viability, T/C was 21.2%.

And the viability, T/C [34]?
The viability, T/C was 28.3%.

And the viability, T/C [35]?
The viability, T/C was 24.8%.

And the viability, T/C [36]?
Its viability, T/C is 0.31%.
